{
  "source": "patent US10975355B2",
  "about": "“Controlled induction of human pancreatic progenitors produces functional beta-like cells” (THE REGENTS OF THE UNIVERSITY OF CALIFORNIA, priority 2015, dated 2021)",
  "molecules": {"B1": {"name": "N: the BMP inhibitor Noggin (N) (protein, UniProt Q13253 28-232, looked up)", "Noggin": "QHYLHIRPAPSDNLPLVDLIEHPDPIFDPKEKDLNETLLRSLLGGHYDPGFMATSPPEDRPGGGGGAAGGAEDLAELDQLLRQRPSGAMPSEIKGLEFSEGLAQGKKQRLSKKLRRKLQMWLWSQTFCPVLYAWNDLGSRFWPRYVKVGSCFSKRSCSVPEGMVCKPSKSVHLTVLRWRCQRRGGQRCGWIPIQYPIISECKCSC"}},
  "type_in_all_cases": "cell-based, human",
  "key": {"[1]": {"tested_on": "MEL1 INS^GFP/W reporter cells (hESC)", "assay": "Flow cytometric analysis of pancreatic progenitor/endocrine markers in differentiating hESC spheres", "conditions": "for generation of PDX1+ cells over base media alone: group 1, factor alone days 6-8 (conditions 2 and 3), day 9.5", "method": "Undifferentiated MEL1 INS^GFP/W reporter cells (Micallef et al, 2012) were maintained on mouse embryo fibroblast feeder layers (Millipore) in hESC media as described (Guo et al, 2013b). Suspension-based differentiations were carried out as follows. Briefly, confluent cultures were dissociated into single cell suspension by incubation with TrypLE (Gibco). Cells were counted and each well of 6-well low-adherence plates were seeded with 5.5×10^6 cells in 5.5 ml hES media supplemented with 10 ng/ml Activin A (R&D systems) and 10 ng/ml HeregulinB1 (Peprotech). Plates were placed on an orbital shaker at 100 rpm to induce sphere formation, as described (Schulz et al, 2012). To induce definitive endoderm differentiation, aggregates were collected 24 hours later in a 50 ml falcon tube, allowed to settle by gravity, washed once with PBS and re-suspended in d1 media (RPMI (Gibco) containing 0.2% FBS, 1:5000 ITS (Gibco), 100 ng/ml Activin A, and 50 ng/ml WNT3a (R&D systems)). Clusters from 3 wells were combined into 2 wells at this point and distributed into fresh low-attachment plates in 5.5 ml d1 media. Media thereafter was changed daily, by removing either 4.5 ml media (at the end of d1) or 5.5 ml media the following days and adding back 5.5 ml fresh media until day 9. After day 9, only 5 ml of media was removed and added daily.\nBriefly, spheres were collected and allowed to settle by gravity. Clusters were washed once in PBS and dissociated by gentle pipetting after 12-15 minutes incubation in Accumax (innovative cell technologies). For sorting, cell suspension were filtered and re-suspended in FACS buffer consisting of phosphate-buffered saline (PBS) (UCSF cell culture facility) containing 2 mM EDTA (Ambion) and 1% BSA (Sigma). Dead cells were excluded by DAPI (Sigma) staining. Cell sorting was performed on a FACS Aria II (BD Bioscience). For flow-based analysis, dissociated cells were fixed with 4% paraformaldehyde (Electron Microscopy Science) for 15 minutes at room temperature, followed by two washes in PBS. Samples were either stored at 4 C or immediately stained with directly conjugated antibodies. Data analysis was performed with FlowJo software. Mouse Glucagon and mouse human C-peptide antibodies were conjugated in-house by the UCSF Antibody Core and/or with Antibody Labeling Kits (Molecular Probes) according to manufacturer's instructions. […]\nTo characterize the type of progenitors present in differentiating cultures at the point of endocrine induction, we performed a detailed time course analysis for the expression of pancreatic markers PDX1, NKX6.1, NEUROG3, GCG and INS (FIG. 7). […] Indeed, the expression of NEUROG3 can be detected as early as day 6, when NKX6.1 protein is absent from all cells (FIGS. 7A and B). […]"}, "[2]": {"tested_on": "NEUROG3 and NKX2.2 mRNA transcripts", "assay": "qPCR analysis of NEUROG3 and NKX2.2 transcripts at day 8 of differentiation", "conditions": "day 8, compared to RCN condition / during RCN or R treatment", "method": "Total RNA was isolated with TRIZOL (Sigma) or micro/mini RNAeasy kit (Qiagen) and reverse transcribed using the iScript cDNA Kit (Bio-Rad) according to manufacturer's instructions. qPCR analysis was performed on an ABI 7900 HT Fast Real-Time PCR System (Applied Biosystems) and CFX Connect Real Time System (Biorad) using standard protocols. Primers were Taqman Probes (Applied Biosystems) and/or as published previously (Liu et al, 2014). P-values were calculated using a two-tailed student's t-test.\nTo characterize the type of progenitors present in differentiating cultures at the point of endocrine induction, we performed a detailed time course analysis for the expression of pancreatic markers PDX1, NKX6.1, NEUROG3, GCG and INS (FIG. 7). […] Indeed, the expression of NEUROG3 can be detected as early as day 6, when NKX6.1 protein is absent from all cells (FIGS. 7A and B). […] We thus expected that robust generation of PDX1+/NKX6.1+ progenitor cells prior to induction of NEUROG3 would allow efficient generation of beta-like cells in vitro. […] Spheres cultured under each condition were analyzed at day 9.5 by flow cytometry to quantify the expression of PDX1 and NKX6.1, and by conventional immunofluorescence analysis for NKX6.1 and NEUROG3 expression. […]"}, "[3]": {"tested_on": "NEUROG3 expression in hESC-derived clusters", "assay": "Immunofluorescence (whole mount / sections) for NEUROG3 protein in differentiated clusters", "conditions": "day 9.5, whole mount staining", "method": "Spheres were fixed for 15-30 minutes at room temperature with 4% paraformaldehyde, followed by multiple washes in PBS. Whole mount staining was performed in suspension, by first blocking overnight at 4° C. in blocking buffer consisting of CAS-block (Invitrogen) with 0.2% TritonX (Fisher). Primary antibodies were incubated overnight at 4° C. in blocking buffer, followed by washes in PBS containing 0.1% Tween-20 (PBS-T, Sigma) and incubation in appropriate secondary antibodies diluted in PBS-T overnight at 4° C. The next day, clusters were washed in PBS-T followed by PBS and mounted with Vectashield (Vector) on glass slides. For sectioning of clusters, spheres were embedded in 2% Agar (Sigma), followed by dehydration, paraffin embedding, and sectioning. […]\nTo characterize the type of progenitors present in differentiating cultures at the point of endocrine induction, we performed a detailed time course analysis for the expression of pancreatic markers PDX1, NKX6.1, NEUROG3, GCG and INS (FIG. 7). […] Indeed, the expression of NEUROG3 can be detected as early as day 6, when NKX6.1 protein is absent from all cells (FIGS. 7A and B). […] Spheres cultured under each condition were analyzed at day 9.5 by flow cytometry to quantify the expression of PDX1 and NKX6.1, and by conventional immunofluorescence analysis for NKX6.1 and NEUROG3 expression. […]"}},
  "data": [
    {"molecule": "CC1=C2C[C@H]3[C@@H](CC=C4C[C@@H](O)CC[C@@]43C)[C@@H]2CC[C@]12O[C@@H]1C[C@H](C)CN[C@H]1[C@H]2C", "note": "[C, Cyclopamine]", "values": [
      {"measurement": "generation of PDX1+ cells over base media alone", "setting": "[1]", "result": "did not result in enhanced generation of PDX1+ cells"}
    ]},
    {"molecule": "O=C1O[C@H]([C@@H](O)CO)C(O)=C1O", "note": "[Vitamin C]", "values": [
      {"measurement": "NEUROG3 and NKX2.2 mRNA transcripts", "setting": "[2]", "result": "did not significantly lower"}
    ]},
    {"molecule": "CC1=C(/C=C/C(C)=C/C=C/C(C)=C/C(=O)O)C(C)(C)CCC1", "note": "[retinoic acid]", "values": [
      {"measurement": "PDX1 positive progenitors", "setting": "[1]; group 1, exposure days 6-8, alone or combined (conditions 4, 5, 6), analysed day 9.5", "result": "> 88", "unit": "%"},
      {"measurement": "PDX1+ pancreatic progenitors generated", "setting": "[1]; retinoic acid alone", "result": "more than 98%"}
    ]},
    {"molecule": "B1", "values": [
      {"measurement": "formation of NEUROG3 positive endocrine precursors", "setting": "[3]", "result": "induced"},
      {"measurement": "generation of PDX1+ cells over base media alone", "setting": "[1]", "result": "did not result in enhanced generation of PDX1+ cells"}
    ]}
  ]
}
